Assays:
[1] = system: DU145 isogenic cells (WT and SLFN11 KO); assay type: cell-based; settings: SLFN11 KO cells compared to wild type DU145 cells; 72 hours; FIG. 2D
Protocol: For cell survival experiment in 96 well plate, cells were seeded in 96-well plates, following compound dosing using a HP dispenser. 72 hours later, cell viability was determined with end-point CellTiter-Glo luminescent assays (Promega). Percentage growth was calculated using the equation (T−T0)/(C−T0)×100, where T=compound-treated cells; T0=cells at 0 h time point and C=control cells. Dose response curves were plotted in GraphPad prism.

[2] = system: pancreatic cancer cell lines (SLFN11-deficient or SLFN11-proficient); assay: Pancreatic cell line panel, 6x6 concentration matrix, live-dead SyTox green assay, Loewe synergy; assay type: cell-based
Excerpt: SLFN11 RNA seq data (log 2 RPKM values) were downloaded from cancer cell line encyclopedia (CCLE) (Barretina J. et al., Nature, 2012; 483: 603-607) and drug response data (log(IC50) and area under the dose-response curve (AUCs)) from drug sensitivity in cancer database (Yang W et al., Nucleic Acids Res, 2013; 41: […]-61). Cell lines with CCLE RNA seq log 2 RPKM values below 1 were defined as SLFN11-deficient and cell lines with log 2 RPKM values above 1 as SLFN11-proficient. Nineteen pancreatic cell lines in 384-well plates were dosed with increasing concentrations of adavosertib and gemcitabine in a 6×6 concentration matrix using an Echo 555 (LabCyte). The dose range was 0-3 μM for adavosertib, and 0-0.3 μM for gemcitabine; in both cases dilutions 1:3 from the top dose were performed. Five days following continuous treatment, cell viability was determined by live-dead SyTox green assay (Life Technologies, Carlsbad, Calif., USA). Synergy was analyzed in Genedata screener software using the Loewe dose-additivity model as described above.

Row | SMILES | sensitivity to DDA monotherapy (survival curves) [1] | sensitivity (log IC50) of SLFN11-deficient versus SLFN11-proficient cell lines, fold less sensitive ([2]; gemcitabine monotherapy, on average, FIG. 3A) | response (log IC50) of SLFN11-deficient versus SLFN11-proficient cell lines ([2]; adavosertib monotherapy, FIG. 3B)
1 | NC(=O)NO [hydroxyurea] | resistant | – | –
2 | COc1cc([C@@H]2c3cc4c(cc3[C@@H](O[C@@H]3O[C@@H]5CO[C@@H](C)O[C@H]5[C@H](O)[C@H]3O)[C@H]3COC(=O)[C@H]23)OCO4)cc(OC)c1O [etoposide] | resistant | – | –
3 | CC[C@@]1(O)C(=O)OCc2c1cc1n(c2=O)Cc2cc3ccccc3nc2-1 [camptothecin] | resistant | – | –
4 | Nc1ccn([C@@H]2O[C@H](CO)[C@@H](O)C2(F)F)c(=O)n1 [gemcitabine] | resistant | 100 times | –
5 | C=CCn1c(=O)c2cnc(Nc3ccc(N4CCN(C)CC4)cc3)nc2n1-c1cccc(C(C)(C)O)n1 [adavosertib] | – | – | same response
6 | N.N.[Cl][Pt][Cl] [cisplatin] | resistant | – | –

From patent US20220387468A1, “METHODS OF TREATING CANCER” (ASTRAZENECA AB, priority 2019, published 2022)
